Measurements taken from patent US5171837A, “Peptide capable of binding interleukin 6 and an adsorbent comprising the peptide immobilized on a carrier” (Kuraray Co., Ltd., priority 1989, dated 1992).
Non-standard residues stand in square brackets, D forms with d. Residues, ends and D or L forms follow the SMILES beside them. No end group written: not given here. *: point of attachment. X1 = NCCCCCCCCCCCCCCCCCC(=O)*; 12Ado = NCCCCCCCCCCCC(=O)O

target: T1, IL-6 (Homo sapiens, UniProt P05231); assay: Activity for inhibition of binding of IL-6 to receptor by peptide (IL-6 receptor expression cells, FITC labeled anti-IL-6 antibody); settings: 5 μg of the peptide, 50 ng of IL-6, 10^5 IL-6 receptor expression cells, 4° C for one hour
T1 construct: purchased Genzyme Corp
Description: A human lymphocyte fraction was obtained from human peripheral blood with Ficoll-Paque (manufactured by Pharmacia-LKB). The fraction was reacted with a cultured supernatant of Epstein-Barr Virus producing cell strain B958 to transform the human lymphocytes to obtain IL-6 receptor expression cells.
1 mg of anti-human IL-6 antibody [Rabbit Anti-human Interleukin-6, manufactured by Genzyme Corp.] was dissolved in a 0.05M carbonate buffer solution (pH: 9.5) and to the resulting solution was added 10 μg of FITC [Fluorescein isothiocyanate, manufactured by Sigma Corp.]. The mixture was stirred at 4° C. overnight. The resulting solution was passed through PD-10 column (manufactured by Pharmacia-LKB) to obtain FITC labeled anti-IL-6 antibody as a firstly eluted fraction.
10^5 IL-6 receptor expression cells were suspended in 0.5 % BSA (bovine serum albumin, manufactured by Sigma Corp.)-PBS (a phosphate buffer solution containing 0.15 M sodium chloride, pH 7.4) and to the resulting suspension were added 50 ng of IL-6 (Human recombinant interleukin-6, manufactured by Genzyme Corp.) and 5 μg of the peptide obtained in any one of Examples 1 to 96. The suspension was allowed to stand at 4° C for one hour. Then, after washing the cells centrifugally with 0.5% BSA-PBS three times (1200 rpm, 5 min.), 1 μg of FITC labeled anti-IL-6 antibody was added and the mixture was allowed to stand at 4° C. for 30 minutes. After washing with 0.5% BSA-PBS three times, the intensity of fluorescence of the cells was determined. The binding inhibition activity of the peptide of each Example was evaluated, by taking the value obtained without addition of the peptide as a control and taking the value- obtained without addition of IL-6 as a blank, according to the following formula: [formula]

T1 sequence (P05231 30-212): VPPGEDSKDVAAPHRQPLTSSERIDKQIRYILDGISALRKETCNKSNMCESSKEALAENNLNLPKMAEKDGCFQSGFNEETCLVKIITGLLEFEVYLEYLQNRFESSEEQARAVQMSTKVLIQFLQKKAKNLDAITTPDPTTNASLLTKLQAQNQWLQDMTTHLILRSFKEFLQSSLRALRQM

Row | Compound | Binding inhibition activity (%)
1 | WNSSFYRLRFELRYRAERSKK [Example 33] | 58
2 | KKTSLPGDSVTLTCPGVEPED [Example 2] | 35
3 | HSWNSSFYRLRFELRYRAERSKK [Example 57] | 63
4 | C[C@H](NC(=O)[C@@H]1CCCN1C(=O)[C@H](CO)NC(=O)[C@H](CC(N)=O)NC(=O)[C@H](CCC(N)=O)NC(=O)[C@H](Cc1ccccc1)NC(=O)[C@H](CCCCN)NC(=O)[C@H](CCCNC(=N)N)NC(=O)CCCCCCCCCCCN)C(=O)N[C@@H](CCC(=O)O)C(=O)N[C@@H](CC(=O)O)C(=O)N[C@@H](Cc1ccccc1)C(=O)N[C@@H](CCC(N)=O)C(=O)N[C@@H](CCC(=O)O)C(=O)N1CCC[C@H]1C(=O)N[C@@H](CS)C(=O)N[C@@H](CCC(N)=O)C(=O)N[C@@H](Cc1ccc(O)cc1)C(=O)N[C@@H](CO)C(=O)N[C@@H](CCC(N)=O)C(=O)N[C@@H](CCC(=O)O)C(=O)N[C@@H](CO)C(=O)N[C@@H](CCC(=O)O)C(=O)N[C@@H](CCC(=O)O)C(=O)N[C@@H](CCC(=O)O)C(=O)N[C@@H](CCC(=O)O)C(=O)N[C@@H](CCC(=O)O)C(=O)O [Example 19] (H-[12Ado]RKFQNSPAEDFQEPCQYSQESEEEEE-OH) | 62
5 | EEEPHSWNSSFYRLRFELRYRAERSKKG-NH2 [Example 71] | 60
6 | KWNSSFYRLRFELRYRAERSKD-NH2 [Example 38] | 56
7 | KTSLPGDSVTLTCPGVEPEDD-NH2 [Example 6] | 36
8 | KRKFQNSPAEDFQEPCQYSQESD-NH2 [Example 22] | 58
9 | KKHSWNSSFYRLRFELRYRAERSK [Example 58] | 60
10 | GTVHLLVDVPPEEPQLSCFRKK [Example 9] | 30
11 | KPHSWNSSFYRLRFELRYRAERSKD-NH2 [Example 70] | 59
12 | CC(C)C[C@H](NC(=O)[C@@H](NC(=O)[C@@H](NC(=O)[C@H](CO)NC(=O)[C@H](CC(=O)O)NC(=O)CNC(=O)[C@@H]1CCCN1C(=O)[C@H](CC(C)C)NC(=O)[C@H](CO)NC(=O)[C@@H](NC(=O)CCCCCCCCCCCN)[C@@H](C)O)C(C)C)[C@@H](C)O)C(=O)N[C@H](C(=O)N[C@@H](CS)C(=O)N1CCC[C@H]1C(=O)NCC(=O)N[C@H](C(=O)N[C@@H](CCC(=O)O)C(=O)N1CCC[C@H]1C(=O)N[C@@H](CCC(=O)O)C(=O)N[C@@H](CC(=O)O)C(=O)N[C@@H](CCC(=O)O)C(=O)N[C@@H](CCC(=O)O)C(=O)N[C@@H](CCC(=O)O)C(=O)N[C@@H](CCC(=O)O)C(=O)N[C@@H](CCC(=O)O)C(=O)O)C(C)C)[C@@H](C)O [Example 3] (H-[12Ado]TSLPGDSVTLTCPGVEPEDEEEEE-OH) | 40
13 | KKQDPHSWNSSFYRLRFELRYRAERSK [Example 82] | 70
14 | CC(C)C[C@H](NC(=O)[C@H](Cc1c[nH]c2ccccc12)NC(=O)[C@H](CCCNC(=N)N)NC(=O)[C@@H]1CCCN1C(=O)[C@H](CC(N)=O)NC(=O)CCCCCCCCCCCCCCCCCN)C(=O)N[C@@H](CO)C(=O)N[C@H](C(=O)N[C@H](C(=O)N[C@@H](Cc1c[nH]c2ccccc12)C(=O)N[C@@H](CCC(N)=O)C(=O)N[C@@H](CC(=O)O)C(=O)N1CCC[C@H]1C(=O)N[C@@H](Cc1c[nH]cn1)C(=O)N[C@@H](CO)C(=O)NCC(=O)O)[C@@H](C)O)C(C)C [Example 52] (X1-NPRWLSVTWQDPHSG-OH) | 35
15 | KGTVHLLVDVPPEEPQLSCFRKD-NH2 [Example 14] | 32
16 | KQDPHSWNSSFYRLRFELRYRAERSKD-NH2 [Example 86] | 58
17 | EEETSLPGDSVTLTCPGVEPEDKG-NH2 [Example 7] | 38
18 | QALTTNKDDDNILFRDSAK [Example 25] | 45
19 | KKQALTTNKDDDNILFRDSA [Example 26] | 42
20 | WNSSFYRLRFELRYRAERSK [Example 37] | 48
21 | GTVHLLVDVPPEEPQLSCFRK [Example 13] | 25
22 | KKNPRWLSVTWQDPHS [Example 50] | 25
23 | QALTTNKDDDNILFRDSA [Example 29] | 41
24 | CC(C)C[C@H](NC(=O)[C@H](CCC(=O)O)NC(=O)[C@H](Cc1ccccc1)NC(=O)[C@H](CCCNC(=N)N)NC(=O)[C@H](CC(C)C)NC(=O)[C@H](CCCNC(=N)N)NC(=O)[C@H](Cc1ccc(O)cc1)NC(=O)[C@H](Cc1ccccc1)NC(=O)[C@H](CO)NC(=O)[C@H](CO)NC(=O)[C@H](CC(N)=O)NC(=O)[C@H](Cc1c[nH]c2ccccc12)NC(=O)[C@H](CO)NC(=O)[C@H](Cc1c[nH]cn1)NC(=O)[C@@H]1CCCN1C(=O)[C@H](CC(=O)O)NC(=O)[C@H](CCC(N)=O)NC(=O)[C@H](Cc1c[nH]c2ccccc12)NC(=O)CCCCCCCCCCCN)C(=O)N[C@@H](CCCNC(=N)N)C(=O)N[C@@H](Cc1ccc(O)cc1)C(=O)N[C@@H](CCCNC(=N)N)C(=O)N[C@@H](C)C(=O)N[C@@H](CCC(=O)O)C(=O)N[C@@H](CCCNC(=N)N)C(=O)N[C@@H](CO)C(=O)N[C@@H](CCCCN)C(=O)N[C@@H](CCC(=O)O)C(=O)N[C@@H](CCC(=O)O)C(=O)N[C@@H](CCC(=O)O)C(=O)N[C@@H](CCC(=O)O)C(=O)N[C@@H](CCC(=O)O)C(=O)O [Example 91] (H-[12Ado]WQDPHSWNSSFYRLRFELRYRAERSKEEEEE-OH) | 60
25 | EEERKFQNSPAEDFQEPCQYSQESKG-NH2 [Example 23] | 58
26 | CC(C)C[C@H](NC(=O)[C@H](CCC(=O)O)NC(=O)[C@H](Cc1ccccc1)NC(=O)[C@H](CCCNC(=N)N)NC(=O)[C@H](CC(C)C)NC(=O)[C@H](CCCNC(=N)N)NC(=O)[C@H](Cc1ccc(O)cc1)NC(=O)[C@H](Cc1ccccc1)NC(=O)[C@H](CO)NC(=O)[C@H](CO)NC(=O)[C@H](CC(N)=O)NC(=O)[C@H](Cc1c[nH]c2ccccc12)NC(=O)[C@H](CO)NC(=O)[C@H](Cc1c[nH]cn1)NC(=O)CCCCCCCCCCCN)C(=O)N[C@@H](CCCNC(=N)N)C(=O)N[C@@H](Cc1ccc(O)cc1)C(=O)N[C@@H](CCCNC(=N)N)C(=O)N[C@@H](C)C(=O)N[C@@H](CCC(=O)O)C(=O)N[C@@H](CCCNC(=N)N)C(=O)N[C@@H](CO)C(=O)N[C@@H](CCCCN)C(=O)N[C@@H](CCC(=O)O)C(=O)N[C@@H](CCC(=O)O)C(=O)N[C@@H](CCC(=O)O)C(=O)N[C@@H](CCC(=O)O)C(=O)N[C@@H](CCC(=O)O)C(=O)O [Example 59] (H-[12Ado]HSWNSSFYRLRFELRYRAERSKEEEEE-OH) | 60
27 | DPHSWNSSFYRLRFELRYRAERSK [Example 77] | 58
28 | TSLPGDSVTLTCPGVEPED [Example 5] | 28
29 | EEEWNSSFYRLRFELRYRAERSKKG-NH2 [Example 39] | 58
